Assay results: patent US20160338935A1, “PROCESS FOR THE PURIFICATION OF HEPARAN SULFATE AND USE THEREOF IN COSMETOLOGICAL AND DERMATOLOGICAL PREPARATIONS” (LABORATORI DERIVATI ORGANICI SPA, priority 2008, published 2016)

Columns and labels:
[1] = APTT (European Pharmacopeia, 4th edition); settings: purified heparan sulfate
Protocol: Organic sulfur, Uronic acid, Glucosamine, Optical rotation, total nitrogen and APTT were measured in accordance with the European Pharmacopeia, 4th edition. Electrophoresis was performed in accordance with R. Cappelletti et al. “A new Electrophoretic method for the separation of all Gags” Anal. Biochem. 99:311-315 (1979).

melanoma cells B16 = assay: In vitro bleaching (whitening) activity: melanin content on melanoma cells B16; format: cell-based
Protocol: The in vitro whitening effect of HS was detected by measurement of melanin content on melanoma cells B16 (fibroblast-like cells able to produce melanin) after 6 days of contact with HS at 2 different concentrations: 0.1 mg/ml (0.01%) and 0.05 mg/ml (0.005%).
The negative control (NC) was represented by untreated cells (cell without any substance). The positive control (PC) was represented by cells treated with Hydroquinone 5 μg/ml (0.0005%).

basophil cells = assay: In vitro degranulation test on basophil cells (release of β-hexosaminidase); format: cell-based
Protocol: Basophil cells, when come in contact with irritant substances, give their biochemical response that is the secretion (by degranulation) of substances (such as histamine, leukotriens, proteolytic enzymes as hexosaminidase) that contribute to inflammatory events.
Inhibition in basophil cells degranulation is a measure of lenitive (anti-itching) effect of a substance. The in vitro lenitive effect of HS was detected by measurement of the release of β-hexosaminidase after 2 h of contact with HS at 4 different concentrations: 10 mg/ml (1%), 5 mg/ml (0.5%), 1 mg/ml (0.1%), 0.2 mg/ml (0.02%).
The negative control (NC) was represented by untreated cells (cells without any substance). The positive control (PC) was represented by basophil degranulation stimuli (by crosslinking the receptor FcεRI with a specific polyclonal antibody against to the α-chain stimulate the degranulation). The maximal stimulation (degranulation) is: cell treated with 1% Triton X-100. […]

[2] = tested on: human keratinocytes cell cultures; assay: In vitro anti-oxidant activity against UVA: ROS reduction on human keratinocytes cell cultures; format: cell-based; settings: for inhibition at 150 µg/mL: Homo sapiens, Keratinocyte, light or radiation study, Vit C 0.15 mg/ml
Protocol: In vitro Evaluation of the anti-ageing activity of cosmetic products through the investigation of their anti-oxidant and protective activity against UVA on human keratinocytes cell cultures. The antioxidant effect of HS is detected by measurement of reduction of free radicals as Reactive Oxygen Species (ROS) after exposure to 3 different UVA irradiation for 1 minute and 30 seconds (1′ 30″), for 3 minutes (3′) and for 4 minutes and 30 seconds (4′ 30″), with HS at 7 different concentrations: 0.031 mg/ml (0.0031%), 0.063 mg/ml (0.0063%), 0.125 mg/ml (0.0125%), 0.250 mg/ml (0.0250%), 0.500 mg/ml (0.0500%), 1.000 mg/ml (0.1000%) and […]. The negative control (NC) was: untreated cells (cells without any substance). The positive control (PC) was: Vitamin C (0.15 mg/ml) (0.015%).

fibroblast cells = assay: In vitro mitogenic activity: fibroblast cells proliferation and protein synthesis; format: cell-based
Protocol: The mitogenic effect of HS is detected by measurement of fibroblast cells proliferation, measurement of protein synthesis after exposure for 48 hours and 72 hours, using HS at 2 different concentrations: 0.1 mg/ml (0.01%) and 0.05 mg/ml (0.005%). The negative control (NC) is represented by untreated cells, the positive control (PC) is: EGF (Epidermal Growth Factor) (10 μg/ml) (0.001%).

[3] = HS 0.005% (0.05 mg/ml), 6 days of contact
[4] = HS 0.01% (0.1 mg/ml), 6 days of contact
[5] = Hydroquinone 0.0005% (5 μg/ml), positive control

## heparan sulphate sodium salt [HS]
[1]
  APTT: 6.31 U/mg
Melanoma cells B16; 0.1 and 0.05 mg/ml, 6 days
  in vitro whitening effect: shows in vitro whitening effect
Melanoma cells B16; [3]
  % Melanin Synthesis Inhibition vs NC: 5.2%
  Melanin Content (μg melanin/mg protein): 44.4 μg melanin/mg protein
Melanoma cells B16; [4]
  % Melanin Synthesis Inhibition vs NC: 10.3%
  Melanin Content (μg melanin/mg protein): 41.9 μg melanin/mg protein
Basophil cells; HS 0.2 mg/ml + PC (degranulation stimulus)
  release of β-hexosaminidase OD at 450 nm: 0.112 OD
Basophil cells; HS 0.2 mg/ml alone, 2 h of contact
  release of β-hexosaminidase OD at 450 nm: 0.061 OD
Basophil cells; HS 1 mg/ml + PC (degranulation stimulus)
  release of β-hexosaminidase OD at 450 nm: 0.110 OD
Basophil cells; HS 1 mg/ml alone, 2 h of contact
  release of β-hexosaminidase OD at 450 nm: 0.062 OD
Basophil cells; HS 5 mg/ml + PC (degranulation stimulus)
  release of β-hexosaminidase OD at 450 nm: 0.055 OD
Basophil cells; HS 5 mg/ml alone, 2 h of contact
  release of β-hexosaminidase OD at 450 nm: 0.059 OD
Basophil cells; HS 10 mg/ml + PC (degranulation stimulus)
  release of β-hexosaminidase OD at 450 nm: 0.061 OD
Basophil cells; HS 10 mg/ml alone, 2 h of contact
  release of β-hexosaminidase OD at 450 nm: 0.066 OD
Basophil cells; HS + PC, best efficacy at 0.5% and 1%
  level of β-hexosaminidase with irritant substance (positive control) and HS: decrease in a dose dependent way
Basophil cells; HS alone at different concentration
  effect on basophil cells degranulation: no effect on basophil cells degranulation
[2]; 1′30″ UVA, HS 0.031 mg/ml
  ROS Inhibition %: 25.3%
[2]; 1′30″ UVA, HS 0.063 mg/ml
  ROS Inhibition %: 25.4%
[2]; 1′30″ UVA, HS 0.125 mg/ml
  ROS Inhibition %: 23.5%
[2]; 1′30″ UVA, HS 0.250 mg/ml
  ROS Inhibition %: 28.0%
[2]; 1′30″ UVA, HS 0.500 mg/ml
  ROS Inhibition %: 30.6%
[2]; 1′30″ UVA, HS 1.000 mg/ml
  ROS Inhibition %: 38.7%
[2]; 1′30″ UVA, HS 9.000 mg/ml
  ROS Inhibition %: 30.7%
[2]; 3′00″ UVA, HS 0.031 mg/ml
  ROS Inhibition %: 20.1%
[2]; 3′00″ UVA, HS 0.063 mg/ml
  ROS Inhibition %: 21.8%
[2]; 3′00″ UVA, HS 0.125 mg/ml
  ROS Inhibition %: 14.2%
[2]; 3′00″ UVA, HS 0.250 mg/ml
  ROS Inhibition %: 22.9%
[2]; 3′00″ UVA, HS 0.500 mg/ml
  ROS Inhibition %: 29.1%
[2]; 3′00″ UVA, HS 1.000 mg/ml
  ROS Inhibition %: 35.7%
[2]; 3′00″ UVA, HS 9.000 mg/ml
  ROS Inhibition %: 31.6%
[2]; 4′30″ UVA, HS 0.031 mg/ml
  ROS Inhibition %: 6.2%
[2]; 4′30″ UVA, HS 0.063 mg/ml
  ROS Inhibition %: 13.7%
[2]; 4′30″ UVA, HS 0.125 mg/ml
  ROS Inhibition %: 10.3%
[2]; 4′30″ UVA, HS 0.250 mg/ml
  ROS Inhibition %: 18.1%
[2]; 4′30″ UVA, HS 0.500 mg/ml
  ROS Inhibition %: 24.7%
[2]; 4′30″ UVA, HS 1.000 mg/ml
  ROS Inhibition %: 30.4%
[2]; 4′30″ UVA, HS 9.000 mg/ml
  ROS Inhibition %: 26.3%
[2]; HS at 0.1% concentration
  antioxidant efficacy compared with Vitamin C: comparable or even higher than the efficacy of Vitamin C
Fibroblast cells; 48 h, HS 0.05 mg/ml (0.005%)
  % cell proliferation vs NC: 106.7%
  % protein synthesis vs NC: 110.2%
Fibroblast cells; 48 h, HS 0.1 mg/ml (0.01%)
  % cell proliferation vs NC: 110.5%
  % protein synthesis vs NC: 103.1%
Fibroblast cells; 72 h, HS 0.05 mg/ml (0.005%)
  % cell proliferation vs NC: 118.2%
  % protein synthesis vs NC: 120.4%
Fibroblast cells; 72 h, HS 0.1 mg/ml (0.01%)
  % cell proliferation vs NC: 118.1%
  % protein synthesis vs NC: 113.2%
Fibroblast cells; 72 hour, 0.05 mg/ml
  highest effect for cell proliferation (increase over NC): 18.2%
  highest effect for protein synthesis (increase over NC): 20.4%

## Oc1ccc(O)cc1 [Hydroquinone, reference compound]
Melanoma cells B16; [5]
  % Melanin Synthesis Inhibition vs NC: 76.8%
  Melanin Content (μg melanin/mg protein): 10.8 μg melanin/mg protein

## EGF: EGF (Epidermal Growth Factor), positive control [reference compound]
Fibroblast cells; 48 h, EGF 10 μg/ml (0.001%)
  % cell proliferation vs NC: 112.5%
  % protein synthesis vs NC: 116.6%
Fibroblast cells; 72 h, EGF 10 μg/ml (0.001%)
  % cell proliferation vs NC: 121.6%
  % protein synthesis vs NC: 119.0%

## Triton X-100 [reference compound]
Basophil cells; maximal stimulation: 1% Triton X-100
  release of β-hexosaminidase OD at 450 nm: 0.377 OD

## O=C1O[C@H]([C@@H](O)CO)C(O)=C1O [Vit C, Vitamin C, reference compound]
[2]; 1′30″ UVA
  inhibition at 150 µg/mL: 33.5%
[2]; 3′00″ UVA
  inhibition at 150 µg/mL: 31.4%
[2]; 4′30″ UVA
  inhibition at 150 µg/mL: 12.7%
